Values of other authors, collected in patent US8722114B2, “Compositions and methods for increasing human growth hormone levels” (Quality IP Holdings, LLC, priority 2012, dated 2014).

How the values were obtained:
[1] = system: hGH
[2] = subcutaneous injection of 0.06 IU, GH deficient subjects

| Molecule | Elevation of serum hGH levels ([1]; 30 g, intravenous, in males) | Increase of hGH levels ([1]; intravenous infusion of 183 mg/kg body weight in females) | Mean levels of GH reached [2] |
| --- | --- | --- | --- |
| N=C(N)NCCC[C@H](N)C(=O)O [arginine] | 8.6 fold | > 20 fold |  |
| HGH: human growth hormone, injected subcutaneously in a cited study |  |  | 0.4 ng/mL |
